Laboratory results from ChEMBL document CHEMBL5316345, “Discovery of the Potent and Selective MC4R Antagonist PF-07258669 for the Potential Treatment of Appetite Loss” (J Med Chem, 2023).

Columns and labels:
[1] = Efflux ratio of apparent permeability from basolateral to apical side over apical to basolateral side in MDCK-MDR1 cells; assay type: ADME, cell-based, Canis lupus familiaris; settings: dog
Melanocortin receptor 4 [2] = biological target: T1, Melanocortin receptor 4 (Homo sapiens, UniProt P32245); assay: Antagonist activity at human MC4R in CHO cells measured for 24 hrs in presence of alpha-MSH; assay type: cell-based
Melanocortin receptor 4 [3] = biological target: T1, Melanocortin receptor 4; assay: Antagonist activity at human MC4R in CHO cells measured for 24 hrs; assay type: cell-based
[4] = Metabolic stability in human hepatocyte assessed as intrinsic clearance measured per million cells HPLC/UV/MS analysis; assay type: ADME, cell-based; settings: hepatocytes, read-out: CLH
[5] = Octanol-water distribution coefficient, logD of the compound at pH 7.4 by RP-HPLC analysis; assay type: physicochemical
[6] = Lipophilicity, logD of compound at pH 7.4 by shake flask method; assay type: physicochemical; settings: buffer
[7] = Metabolic stability in human hepatocyte assessed as intrinsic clearance measured per 10^6 cells HPLC/UV/MS analysis; assay type: ADME, cell-based; settings: hepatocytes, read-out: CLH
Cytochrome P450 3A = Cytochrome P450 3A (Homo sapiens, UniProt P08684+P20815+Q9HB55+P24462); assay: Time dependent inhibition of CYP3A (unknown origin) at 10 uM relative to control; assay type: ADME, protein assay
[8] = biological target: Voltage-gated inwardly rectifying potassium channel KCNH2 (Homo sapiens, UniProt Q12809); assay: Inhibition of hERG expressed in CHO cells stably at -80 mV holding potential by automated patch clamp method; assay type: toxicity, cell-based
Melanocortin receptor 4 [9] = biological target: T1, Melanocortin receptor 4; assay: Antagonist activity at human MC4R expressed in CHO cells assessed as decrease in alpha-MSH induced cAMP level incubated for 1 hr by microplate reader analysis; assay type: functional, cell-based

Voltage-gated inwardly rectifying potassium channel KCNH2, sequence (Q12809 whole entry): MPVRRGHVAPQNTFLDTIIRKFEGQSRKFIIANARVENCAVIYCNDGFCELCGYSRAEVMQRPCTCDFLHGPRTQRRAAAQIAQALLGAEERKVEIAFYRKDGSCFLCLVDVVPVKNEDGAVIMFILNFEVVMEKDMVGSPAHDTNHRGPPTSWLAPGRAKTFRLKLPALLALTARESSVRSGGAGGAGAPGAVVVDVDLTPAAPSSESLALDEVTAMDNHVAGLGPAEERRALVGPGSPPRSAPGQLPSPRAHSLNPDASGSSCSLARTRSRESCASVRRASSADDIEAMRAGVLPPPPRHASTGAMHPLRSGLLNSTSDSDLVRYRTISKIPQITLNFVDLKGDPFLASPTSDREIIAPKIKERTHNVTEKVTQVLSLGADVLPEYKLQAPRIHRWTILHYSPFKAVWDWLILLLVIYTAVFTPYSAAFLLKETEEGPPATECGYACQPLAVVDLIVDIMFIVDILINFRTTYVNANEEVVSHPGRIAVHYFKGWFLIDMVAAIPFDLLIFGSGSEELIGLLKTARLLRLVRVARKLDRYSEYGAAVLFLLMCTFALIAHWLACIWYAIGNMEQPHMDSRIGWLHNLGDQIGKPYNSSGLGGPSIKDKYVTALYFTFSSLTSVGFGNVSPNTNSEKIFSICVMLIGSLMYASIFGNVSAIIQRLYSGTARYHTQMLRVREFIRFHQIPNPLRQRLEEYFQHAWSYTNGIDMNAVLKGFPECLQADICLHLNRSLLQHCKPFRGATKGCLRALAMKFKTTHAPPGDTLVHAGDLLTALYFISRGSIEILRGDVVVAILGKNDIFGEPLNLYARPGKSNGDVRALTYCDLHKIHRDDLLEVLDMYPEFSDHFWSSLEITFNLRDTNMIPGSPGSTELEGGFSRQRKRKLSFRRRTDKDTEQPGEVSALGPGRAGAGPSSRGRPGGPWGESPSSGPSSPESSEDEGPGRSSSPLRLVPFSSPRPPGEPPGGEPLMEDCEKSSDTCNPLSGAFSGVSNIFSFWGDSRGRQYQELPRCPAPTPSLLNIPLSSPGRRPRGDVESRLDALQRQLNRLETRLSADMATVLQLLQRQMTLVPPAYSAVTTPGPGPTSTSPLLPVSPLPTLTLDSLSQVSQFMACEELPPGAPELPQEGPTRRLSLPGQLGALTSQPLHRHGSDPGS
T1 sequence (P32245 whole entry): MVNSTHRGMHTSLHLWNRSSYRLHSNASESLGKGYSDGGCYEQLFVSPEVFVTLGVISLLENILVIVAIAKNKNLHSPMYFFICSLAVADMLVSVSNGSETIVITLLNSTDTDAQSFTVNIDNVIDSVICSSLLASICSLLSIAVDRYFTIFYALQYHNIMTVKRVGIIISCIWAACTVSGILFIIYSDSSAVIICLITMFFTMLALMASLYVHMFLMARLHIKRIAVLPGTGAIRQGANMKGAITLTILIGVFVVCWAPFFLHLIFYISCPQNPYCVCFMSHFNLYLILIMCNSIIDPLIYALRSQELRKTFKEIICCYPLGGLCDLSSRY

Structure (SMILES)	Ratio [1]	Ki (Melanocortin receptor 4 [2]) [nM]	IC50 (Melanocortin receptor 4 [3]) [nM]	hepatocyte CLint [4] [µL/min/1e6 cells]	logD [5]	logD [6]	hepatocyte CLint [7] [µL/min/1e6 cells]	K (Cytochrome P450 3A) [min⁻¹]	IC50 (Melanocortin receptor 4 [9]) [nM]	IC50 [8] [nM]
COc1cc(CC(=O)N2CC[C@H](Nc3ccc(-c4nc(C(F)(F)F)n(C)n4)c(C)n3)C2)cc(OC)c1	–	–	–	34	3.6	–	–	–	–	–
COc1cc([C@@H](C)C(=O)N2CC[C@H](Nc3ccc(-c4nc(C(F)F)n(C)n4)c(C)n3)C2)ccn1	16	1.4	–	10	–	2.7	–	–	–	–
COc1cc(CC(=O)N2CC[C@H](Nc3ccc(-c4nc(C(F)F)n(C)n4)c(C)n3)C2)ccn1	–	27	–	7.1	–	–	–	–	–	–
COc1cc([C@@H](C)C(=O)N2CC[C@H](Nc3ccc(-c4nc(C(F)F)n(C)n4)c(C)n3)C2)c(F)cn1	–	–	–	15	3.4	–	15	0.015	–	25000
COc1ccc2nc(N[C@H]3CCN(C(=O)Cc4cc(F)cc(F)c4)C3)ccc2c1	8.6	0.62	7.8	–	–	–	28	0.61	360	360
COc1cc([C@@H](C)C(=O)N2CC[C@H](Nc3ccc(-c4ncccn4)c(C)n3)C2)c(F)cn1	4.9	6.4	–	7.9	–	2.6	–	–	–	–
COc1ccc2nc(N[C@H]3CCN(C(=O)Cc4cc(F)cc(F)c4)C3)c(C)cc2c1	–	910	–	–	–	–	–	–	–	–
Cc1nc(N[C@H]2CCN(C(=O)Cc3ccc(F)cc3)C2)ccc1-c1nc(C(F)(F)F)n(C)n1	6.1	5.5	210	–	–	–	20	0.006	–	78000
COc1cc([C@@H](C)C(=O)N2CC[C@H](Nc3ccc(-c4nc(C(F)(F)F)n(C)n4)c(C)n3)C2)c(F)cn1	6.1	–	–	15	4.2	–	–	–	–	–
[2H]C([2H])([2H])n1nc(-c2ccc(N[C@H]3CCN(C(=O)[C@H](C)c4cc(OC)ncc4F)C3)nc2C)nc1C(F)F	–	–	–	–	–	–	18	–	–	28000
COc1cc([C@@H](C)C(=O)N2CC[C@H](Nc3ccc(-c4n[nH]c(C(F)F)n4)c(C)n3)C2)c(F)cn1	–	62	–	–	–	–	7.5	–	–	19000
COc1ccc2nc(N(C(=O)Cc3cc(F)cc(F)c3)[C@H]3CCNC3)ccc2c1	–	–	3.8	–	–	–	–	–	–	–

The next lines start with results.

Ratio [1]	Ki (Melanocortin receptor 4 [2]) [nM]	IC50 (Melanocortin receptor 4 [3]) [nM]	hepatocyte CLint [4] [µL/min/1e6 cells]	logD [5]	logD [6]	hepatocyte CLint [7] [µL/min/1e6 cells]	K (Cytochrome P450 3A) [min⁻¹]	IC50 (Melanocortin receptor 4 [9]) [nM]	Structure (SMILES)	IC50 [8] [nM]
4.8	0.45	8.4	12	–	–	–	–	–	COc1cc([C@@H](C)C(=O)N2CC[C@@]3(CCc4cc(-c5nc(C(F)(F)F)n(C)n5)c(C)nc4N3)C2)c(F)cn1	–
–	–	–	4.9	2.4	–	–	–	–	Cc1nc2c(cc1-c1cnn(C)c1)OC[C@@]1(CCN(C(=O)Cc3ccc(F)cc3)C1)N2	–
8.7	0.49	–	11	–	3.2	–	–	–	COc1cc([C@@H](C)C(=O)N2CC[C@@]3(CCc4cc(-c5nc(C(F)F)n(C)n5)c(C)nc4N3)C2)c(F)cn1	–
19	19	240	–	–	–	4.5	0.007	–	Cc1nc(N[C@H]2CCN(C(=O)Cc3ccc(F)cc3)C2)ccc1-c1ncn(C)n1	–
18	0.6	39	6.5	–	2.6	–	–	–	Cc1nc2c(cc1-c1cnn(C)c1)CC[C@@]1(CCN(C(=O)Cc3ccc(F)cc3)C1)N2	–
34	> 2200	20000	–	1.9	–	–	–	–	Cc1nc2c(cc1-c1cnn(C)c1)CC1(CCN(C(=O)Cc3ccc(F)cc3)C1)N2 (racemic)	–
